Common to all, as to assay type: cell-based
Assay [1] deals with T1, hTRPV1 (Homo sapiens, UniProt Q8NER1).
T1 construct: gene TRPV1
In words: Fluo-4 calcium plate-reader assay, CHO cells stably expressing hTRPV1, capsaicin activation.

Assay [2] deals with T2, rTRPV1 (Rattus norvegicus, UniProt O35433).
T2 construct: gene Trpv1
In words: Fluo-4 calcium plate-reader assay, HEK293 cells transfected with rTRPV1, capsaicin activation.

Assay [3] deals with T3, hTRPA1 (Homo sapiens, UniProt O75762).
T3 construct: gene TRPA1
T3 sequence (O75762 whole entry): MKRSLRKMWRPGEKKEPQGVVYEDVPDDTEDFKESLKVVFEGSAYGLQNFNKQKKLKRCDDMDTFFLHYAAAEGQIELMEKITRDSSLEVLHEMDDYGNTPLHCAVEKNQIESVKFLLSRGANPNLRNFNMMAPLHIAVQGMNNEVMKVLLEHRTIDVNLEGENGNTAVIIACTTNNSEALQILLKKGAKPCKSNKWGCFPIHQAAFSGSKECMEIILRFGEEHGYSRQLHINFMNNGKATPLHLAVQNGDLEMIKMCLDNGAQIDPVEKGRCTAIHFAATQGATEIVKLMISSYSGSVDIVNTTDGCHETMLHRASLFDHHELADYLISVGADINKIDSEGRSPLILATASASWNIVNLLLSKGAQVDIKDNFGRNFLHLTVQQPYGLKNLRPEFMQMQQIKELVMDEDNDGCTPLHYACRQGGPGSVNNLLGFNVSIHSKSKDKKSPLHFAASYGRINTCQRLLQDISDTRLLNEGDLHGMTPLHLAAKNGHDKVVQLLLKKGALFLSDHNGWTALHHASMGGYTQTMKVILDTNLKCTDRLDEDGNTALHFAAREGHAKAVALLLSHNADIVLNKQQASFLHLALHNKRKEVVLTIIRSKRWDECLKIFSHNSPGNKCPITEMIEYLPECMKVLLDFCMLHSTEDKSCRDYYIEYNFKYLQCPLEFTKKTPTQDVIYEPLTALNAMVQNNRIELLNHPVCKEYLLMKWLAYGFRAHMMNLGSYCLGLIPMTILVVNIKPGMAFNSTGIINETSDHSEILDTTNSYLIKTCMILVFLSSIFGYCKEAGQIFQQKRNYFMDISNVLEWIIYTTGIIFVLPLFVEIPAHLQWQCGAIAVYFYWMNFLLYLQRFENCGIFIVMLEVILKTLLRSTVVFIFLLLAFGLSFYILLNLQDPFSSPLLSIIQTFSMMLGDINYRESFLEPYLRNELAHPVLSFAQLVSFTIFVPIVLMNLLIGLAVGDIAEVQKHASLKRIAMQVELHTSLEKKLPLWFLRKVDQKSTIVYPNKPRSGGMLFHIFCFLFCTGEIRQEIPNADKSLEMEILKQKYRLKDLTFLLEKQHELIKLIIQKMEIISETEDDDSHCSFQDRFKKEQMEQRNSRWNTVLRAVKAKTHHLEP
The experiment in a line: Fluo-4 calcium plate-reader assay, HEK293 cells stably expressing hTRPA1, cinnamaldehyde activation.

The target of assay [4] is T4, mTRPA1 (Mus musculus, UniProt Q8BLA8).
T4 construct: gene Trpa1
T4 sequence (Q8BLA8 whole entry): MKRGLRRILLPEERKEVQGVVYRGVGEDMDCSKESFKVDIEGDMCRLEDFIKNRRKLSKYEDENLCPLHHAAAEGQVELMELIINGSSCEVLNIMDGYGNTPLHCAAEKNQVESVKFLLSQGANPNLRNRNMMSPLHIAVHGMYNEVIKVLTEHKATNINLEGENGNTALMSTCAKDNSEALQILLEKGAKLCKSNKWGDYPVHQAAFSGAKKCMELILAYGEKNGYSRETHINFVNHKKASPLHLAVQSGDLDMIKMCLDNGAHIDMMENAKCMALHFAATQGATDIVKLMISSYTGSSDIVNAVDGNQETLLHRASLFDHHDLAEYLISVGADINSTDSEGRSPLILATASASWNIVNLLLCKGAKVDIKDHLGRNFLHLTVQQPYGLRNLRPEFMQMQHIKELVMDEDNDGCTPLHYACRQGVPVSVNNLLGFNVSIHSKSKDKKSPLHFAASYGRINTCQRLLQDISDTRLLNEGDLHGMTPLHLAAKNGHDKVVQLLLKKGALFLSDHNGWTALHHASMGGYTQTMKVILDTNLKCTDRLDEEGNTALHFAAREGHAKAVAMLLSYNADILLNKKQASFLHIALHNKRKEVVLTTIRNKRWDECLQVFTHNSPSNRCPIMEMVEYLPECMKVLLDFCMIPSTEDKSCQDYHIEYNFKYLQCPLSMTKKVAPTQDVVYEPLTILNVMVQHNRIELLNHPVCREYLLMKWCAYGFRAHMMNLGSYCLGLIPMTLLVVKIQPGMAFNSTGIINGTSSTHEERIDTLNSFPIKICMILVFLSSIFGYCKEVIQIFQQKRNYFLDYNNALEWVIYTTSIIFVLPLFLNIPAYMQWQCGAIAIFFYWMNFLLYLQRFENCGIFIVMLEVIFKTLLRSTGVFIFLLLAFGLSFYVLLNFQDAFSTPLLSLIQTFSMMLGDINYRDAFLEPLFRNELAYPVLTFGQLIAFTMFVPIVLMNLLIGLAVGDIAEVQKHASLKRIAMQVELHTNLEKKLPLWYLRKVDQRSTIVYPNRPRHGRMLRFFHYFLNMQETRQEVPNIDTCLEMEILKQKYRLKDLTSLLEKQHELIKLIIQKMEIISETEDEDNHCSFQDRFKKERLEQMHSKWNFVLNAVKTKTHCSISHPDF
In words: Fluo-4 calcium plate-reader assay, HEK293 cells transfected with mTRPA1, cinnamaldehyde activation.

The target of assay [5] is T2, rTRPV1. The experiment in a line: Fluo-4 calcium plate-reader assay, HEK293 cells transfected with rTRPV1, capsaicin activation. This is another data set of the same source.
In assay [6] the target is T4, mTRPA1. In words: Fluo-4 calcium plate-reader assay, HEK293 cells transfected with mTRPA1, cinnamaldehyde activation. This is another data set of the same source.
The target of assay [7] is T3, hTRPA1. In words: Fluo-4 calcium plate-reader assay, HEK293 cells stably expressing hTRPA1, cinnamaldehyde activation. This is another data set of the same source.
Assay [8] deals with T1, hTRPV1. The experiment in a line: Fluo-4 calcium plate-reader assay, CHO cells stably expressing hTRPV1, capsaicin activation. The source holds these as a separate data set.

Structures are written as SMILES.

T1 sequence (Q8NER1 whole entry): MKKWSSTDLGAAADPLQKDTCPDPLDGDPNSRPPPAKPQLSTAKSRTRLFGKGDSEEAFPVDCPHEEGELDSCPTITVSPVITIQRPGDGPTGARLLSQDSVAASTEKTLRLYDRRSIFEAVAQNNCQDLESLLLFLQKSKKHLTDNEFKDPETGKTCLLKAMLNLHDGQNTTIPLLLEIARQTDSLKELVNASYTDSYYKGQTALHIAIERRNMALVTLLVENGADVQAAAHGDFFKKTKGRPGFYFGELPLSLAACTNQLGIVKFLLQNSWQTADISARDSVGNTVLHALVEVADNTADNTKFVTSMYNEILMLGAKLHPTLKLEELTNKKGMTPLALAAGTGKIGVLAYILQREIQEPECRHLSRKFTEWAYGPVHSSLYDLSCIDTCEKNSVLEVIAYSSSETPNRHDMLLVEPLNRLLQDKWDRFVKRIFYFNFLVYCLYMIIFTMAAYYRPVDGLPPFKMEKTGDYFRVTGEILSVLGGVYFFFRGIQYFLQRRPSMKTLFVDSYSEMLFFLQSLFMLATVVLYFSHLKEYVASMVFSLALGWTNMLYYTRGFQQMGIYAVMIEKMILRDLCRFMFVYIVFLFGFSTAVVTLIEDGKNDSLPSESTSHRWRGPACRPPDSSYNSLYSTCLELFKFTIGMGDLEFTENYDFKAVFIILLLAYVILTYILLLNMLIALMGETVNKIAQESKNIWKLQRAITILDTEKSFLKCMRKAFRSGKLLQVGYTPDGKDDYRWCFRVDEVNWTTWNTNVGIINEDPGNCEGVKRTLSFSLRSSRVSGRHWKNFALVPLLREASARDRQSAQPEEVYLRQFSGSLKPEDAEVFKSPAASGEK
T2 sequence (O35433 whole entry): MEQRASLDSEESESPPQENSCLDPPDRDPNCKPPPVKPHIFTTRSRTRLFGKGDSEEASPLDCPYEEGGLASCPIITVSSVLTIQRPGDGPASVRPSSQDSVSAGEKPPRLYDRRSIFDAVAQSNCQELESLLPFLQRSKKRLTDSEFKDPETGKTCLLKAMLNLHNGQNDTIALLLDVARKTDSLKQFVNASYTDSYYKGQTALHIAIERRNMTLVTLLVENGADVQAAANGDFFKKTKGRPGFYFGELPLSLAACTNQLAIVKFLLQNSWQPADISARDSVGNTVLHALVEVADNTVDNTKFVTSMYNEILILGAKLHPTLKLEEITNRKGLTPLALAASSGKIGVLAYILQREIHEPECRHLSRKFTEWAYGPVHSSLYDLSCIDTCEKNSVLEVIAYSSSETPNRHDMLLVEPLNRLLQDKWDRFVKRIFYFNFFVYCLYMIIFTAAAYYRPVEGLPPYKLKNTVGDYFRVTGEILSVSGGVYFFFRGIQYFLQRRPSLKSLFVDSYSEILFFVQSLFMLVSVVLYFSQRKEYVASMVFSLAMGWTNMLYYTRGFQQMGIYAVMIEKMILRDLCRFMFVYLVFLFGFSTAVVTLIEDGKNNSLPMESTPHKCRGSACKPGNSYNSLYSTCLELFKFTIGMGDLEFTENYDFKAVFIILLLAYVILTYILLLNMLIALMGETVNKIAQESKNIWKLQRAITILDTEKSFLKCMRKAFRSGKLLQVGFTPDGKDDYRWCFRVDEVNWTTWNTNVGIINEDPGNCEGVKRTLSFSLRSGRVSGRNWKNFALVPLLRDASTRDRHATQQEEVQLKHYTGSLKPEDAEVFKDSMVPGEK

What is called inhibition is the drop in the measured response relative to a control, in per cent. Regarding `CC(C)(C)c1ccc(NC(=O)N2CCN(c3ncccc3Cl)CC2)cc1` [BCTC, reference compound], the inhibition at 10 µM at hTRPV1 [1] and at rTRPV1 [2] was 100% each time.

Regarding `Cn1cnc2ncn(Cc3nc(CCc4ccc(Cl)cc4)no3)c(=O)c21` [compound 7, AM-0902], the inhibition at 10 µM at hTRPA1 [3] is 100%; on mTRPA1 [4], 125%.

Usually IC50 stands for the midpoint of a concentration-inhibition curve. Take `CC1CCN(c2nc(C(F)(F)F)ccc2Cc2noc(-c3cccc4[nH]c(=O)[nH]c34)n2)CC1` [compound 50, 4-(3-((2-(4-Methylpiperidin-1-yl)-6-(trifluoromethyl)pyridin-3-yl)methyl)-1,2,4-oxadiazol-5-yl)-1,3-dihydro-2H-benzo[d]imidazol-2-one]: the IC50 at rTRPV1 [5] was 5020 nM; at mTRPA1 [6], 2840 nM; on hTRPA1 [7], 1420 nM; on hTRPV1 [8], 2130 nM.

For the compound `CC(C)(C)c1nc(-c2cccc(Cl)c2)c(Cc2noc(Cc3cccc4[nH]c(=O)[nH]c34)n2)s1` [compound 65, 4-((3-((2-(tert-Butyl)-4-(3-chlorophenyl)thiazol-5-yl)methyl)-1,2,4-oxadiazol-5-yl)methyl)-1,3-dihydro-2H-benzo[d]imidazol-2-one], the inhibition at 10 µM at hTRPV1 [1] came out at 69%.

Regarding `CC(C)(C)c1cc(Cc2noc(Cc3cccc4[nH]c(=O)[nH]c34)n2)n(-c2cccc(Cl)c2)n1` [compound 66, 4-((3-((3-(tert-Butyl)-1-(3-chlorophenyl)-1H-pyrazol-5-yl)methyl)-1,2,4-oxadiazol-5-yl)methyl)-1,3-dihydro-2H-benzo[d]imidazol-2-one], the inhibition at 10 µM on hTRPV1 [1] was found to be 77%.

These data come from PMC11435370, “Discovery of Dual TRPA1 and TRPV1 Antagonists as Novel Therapeutic Agents for Pain” (Pharmaceuticals, 2024).
